The values that follow come from patent US12687780B2, “Curable water-based composition, active-energy-ray-curable water-based composition, active-energy-ray-curable water-based ink, stored container, two-dimensional or three-dimensional image forming apparatus, two-dimensional or three-dimensional image forming method, cured product, and decorated body” (Ricoh Company, Ltd., priority 2021, dated 2026).

A short description of the data set: Skin sensitivity: stimulation index (SI) value by the LLNA method (OECD test guideline 429). Format: in vivo. The note with it: stimulation index of the single compound (raw material).

For `C=CC(=O)NCC(=O)OC` [Example A1-2, N-acryloylglycine methyl ester], the SI value result is given as “(see Synthesis example 2) SI = 1.01”. For `C=CC(=O)NCC(=O)OCC` [Example A1-3, N-acryloylglycine ethyl ester] the value was “(see Synthesis example 3) SI = 1.21”; for `C=CC(=O)NCCCC(=O)OC` [Example A1-5, N-acryloyl-4-butyric acid methyl ester], “(see Synthesis example 5) SI = 1.45”; for `C=CC(=O)NC(C)C(=O)OC` (stereo not shown) [Example A1-6, N-acryloyl alaninemethyl ester], “(see Synthesis example 6) SI = 1.37”.

Take `C=CC(=O)N(C)CC(=O)OC` [Example A2-1, N-acryloyl-N-methyl glycine methyl ester]: the SI value result is recorded as “(see Synthesis example 7) SI = 1.00”. For `C=CC(=O)N1CCC(C(=O)OCC)CC1` [Example A2-5, ethyl N-acryloylpiperidine-4-carboxylate] the value was “(see Synthesis example 10) SI = 1.70”; for `C=CC(=O)NCNC(=O)C=C` [Example B1-1], “SI = 1.08”. For `C=CC(=O)NCCNC(=O)C=C` [Example B1-2] the value was “SI = 1.23”; for `C=CC(=O)NCCN(CCNC(=O)C=C)C(=O)C=C` [Example B1-3], ““FOM-03007” obtained from FUJIFILM Corporation SI = 1.44”; for `C=CC(=O)NCCN(CCN(CCNC(=O)CC)C(=O)C=C)C(=O)C=C` [Example B1-4], ““FOM-03009” obtained from FUJIFILM Corporation SI = 1.52”.
